# Measured values: publication PMC5501782 (Scientific Reports, 2017)
# “Also recorded” adds a separate entry of the source. Non-standard residues stand in square brackets, D forms with d. Residues, ends and D or L forms follow the SMILES beside them.
# Assays:
# [1] = system: Influenza virus (H5N2) A/bird/Korea/W81/2005; details: Influenza virus A/bird/Korea/W81/2005, 48 h
# [2] = system: Respiratory Syncytial Virus; details: 48 h
# Herpes simplex virus = details: 48 h
# PR8-GFP virus [3] = type: cell-based, influenza A virus
# [4] = system: Influenza virus (H1N1) A/Puerto Rico/8/34; details: Influenza virus A/Puerto Rico/8/34, 48 h
# Enterovirus71 = type: cell-based
# VSV (293T cells) = type: cell-based, vesicular stomatitis virus
# [5] = system: A/EM/Korea/W149/06 (W149, HPAI, H5N1); details: mouse, in vivo
# [6] = system: Porcine epidemic diarrhea virus; details: 48 h
# Coxsakievirus = type: cell-based
# [7] = system: Vesicular stomatitis virus; details: 48 h
# PR8-GFP virus [8] = system: PR8-GFP virus; design: species or system influenza A virus
# Parainfluenza virus = details: 48 h
# [9] = system: Coxsackievirus (HeLa cells); type: cell-based
# [10] = system: influenza virus (A/Puerto Rico/8/34, PR8) expressing green fluorescent protein (PR8-GFP); type: cell-based
# [11] = system: Influenza virus (H9N2) A/Chicken/Korea/116/2004; details: 48 h
# [12] = system: Influenza virus (H7N3) A/Aquatic bird/Korea/W44/2005; details: 48 h
# Newcastle disease virus = details: 48 h
# RSV (Hep2 cells) = type: cell-based, respiratory syncytial virus
# autophagy = details: cited from earlier work
molecule,measurement,setting,value
CC(C)C[C@@H](NC(=O)[C@@H](CC(C)C)NC(=O)[C@@H](CC(N)=O)NC(=O)[C@H](NC(=O)[C@@H](Cc1ccccc1)NC(=O)CNC(=O)[C@@H](Cc1ccc(O)cc1)NC(=O)CNC(=O)[C@@H](CCCNC(=N)N)NC(=O)[C@@H](CCCCN)NC(=O)[C@@H](CCCCN)NC(=O)[C@@H](CCCNC(=N)N)NC(=O)[C@@H](CCCNC(=N)N)NC(=O)[C@@H](CCC(N)=O)NC(=O)[C@@H](CCCNC(=N)N)NC(=O)[C@@H](CCCNC(=N)N)NC(=O)[C@H](N)CCCNC(=N)N)C(C)C)C(=O)N[C@H](Cc1ccccc1)C(=O)N[C@H](CC(C)C)C(=O)N[C@@H](C(=O)N[C@@H](C(=O)N[C@H](CCC(=O)O)C(=O)O)C(C)C)C(C)C [TAT-Kα2] (H-[dR][dR][dR][dQ][dR][dR][dK][dK][dR]G[dY]G[dF][dV][dN][dL][dL][dF][dL][dV][dV][dE]-OH),IC50,[1],800 nM
same,IC50,[2],3.4 µM
same,IC50,Herpes simplex virus,5.7 µM
same,virus transmission,PR8-GFP virus [3],suppressed
same,IC50,[4],500 nM
same,IC50,Enterovirus71,No
same,virucidal effect,Enterovirus71,did not show any virucidal effects
same,inhibition of infection,VSV (293T cells),inhibited
same,difference in body weight percentage among groups,[5],more than 20%
same,lung histopathology,[5],intact lung tissues
same,lung virus titer,[5],no virus was detected
same,survival rate,[5],100%
same,cytotoxicity or CPE,MDCK cells,no cytotoxicity or CPE
same,IC50,[6],3.5 µM
same,IC50,Coxsakievirus,No
same,IC50,[7],2900 nM
same,infectivity of virus in positive fractions in vitro,PR8-GFP virus [8],did not
same,IC50,Parainfluenza virus,2400 nM
same,virucidal effect,[9],did not show any virucidal effects
same,antiviral action at attachment step,[10],inhibition of virus infection
same,antiviral action at post-attachment step,[10],unable to inhibit virus infection
same,antiviral action at pre-attachment step,[10],antiviral activity
same,infection of MDCK cells by peptide-treated PR8-GFP,[10],strongly diminished
same,infectivity of PR8-GFP virus,[10],dramatically suppressed; also recorded: no viral infection was detected
same,reduction in the virus titer,[10],approximately 40%
same,IC50,[11],700 nM
same,IC50,[12],1200 nM
same,IC50,Newcastle disease virus,800 nM
same,inhibition of infection,RSV (Hep2 cells),inhibited
EVVLFLLNVF [Kα2],autophagy induction,autophagy,robust autophagy inducer
